In ChEMBL document CHEMBL2385044, “Inhibitors for the hepatitis C virus RNA polymerase explored by SAR with advanced machine learning methods” (Bioorg Med Chem, 2013):

Experiments:
[1] = tested on: Hepatitis C virus; assay: Inhibition of Hepatitis C virus subtype 1b J4L6 NS5B Cdelta21 RNA dependent RNA polymerase after 60 mins by liquid scintillation counting analysis; conditions: J4L6, 1 h
[2] = tested on: Hepatitis C virus; assay: Inhibition of Hepatitis C virus CON1 NS5B RNA dependent RNA polymerase after 2 hrs by scintillation counting analysis; parameters: species or system Hepacivirus hominis; conditions: Con1, 2 h

Compound	IC50 [1]	IC50 [2]	IC90 [2]
COc1c2c(cc3c1C(C#CCOc1cc4c5c(oc4cc1C(C)(C)C)CCCC5)N(C)CC3)OCO2 (centres undefined)	38 µM	–	–
CCOC(=O)c1c(NC(=O)CSc2nnc3nc4[nH]c5ccccc5c4nn23)sc2c1CCN(C)C2	46.3 µM	–	–
CCOc1nc2cccc(C(=O)OC(C)OC(=O)OC3CCCCC3)c2n1Cc1ccc(-c2ccccc2-c2nn[nH]n2)cc1 (centres undefined) [CANDESARTAN CILEXETIL]	–	14.2 µM	28 µM
